# T1: human recombinant UGT1A4 (Homo sapiens, UniProt P22310)
# T1 sequence (P22310 29-534): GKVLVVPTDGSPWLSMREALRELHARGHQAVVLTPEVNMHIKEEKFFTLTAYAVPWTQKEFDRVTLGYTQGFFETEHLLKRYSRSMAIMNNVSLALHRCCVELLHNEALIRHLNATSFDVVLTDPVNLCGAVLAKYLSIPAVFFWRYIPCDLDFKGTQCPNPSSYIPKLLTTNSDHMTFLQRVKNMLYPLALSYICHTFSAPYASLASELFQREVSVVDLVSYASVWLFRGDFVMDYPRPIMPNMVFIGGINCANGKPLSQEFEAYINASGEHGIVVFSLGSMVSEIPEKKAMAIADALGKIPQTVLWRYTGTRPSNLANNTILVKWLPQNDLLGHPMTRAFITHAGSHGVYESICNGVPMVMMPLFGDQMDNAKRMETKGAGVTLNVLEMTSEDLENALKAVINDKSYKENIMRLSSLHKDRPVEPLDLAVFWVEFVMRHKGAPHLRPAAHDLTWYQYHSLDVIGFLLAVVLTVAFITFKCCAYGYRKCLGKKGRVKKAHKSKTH
# T2: human recombinant UGT1A3 (Homo sapiens, UniProt P35503)
# T2 construct: purchased BD Gentest
# T2 sequence (P35503 29-534): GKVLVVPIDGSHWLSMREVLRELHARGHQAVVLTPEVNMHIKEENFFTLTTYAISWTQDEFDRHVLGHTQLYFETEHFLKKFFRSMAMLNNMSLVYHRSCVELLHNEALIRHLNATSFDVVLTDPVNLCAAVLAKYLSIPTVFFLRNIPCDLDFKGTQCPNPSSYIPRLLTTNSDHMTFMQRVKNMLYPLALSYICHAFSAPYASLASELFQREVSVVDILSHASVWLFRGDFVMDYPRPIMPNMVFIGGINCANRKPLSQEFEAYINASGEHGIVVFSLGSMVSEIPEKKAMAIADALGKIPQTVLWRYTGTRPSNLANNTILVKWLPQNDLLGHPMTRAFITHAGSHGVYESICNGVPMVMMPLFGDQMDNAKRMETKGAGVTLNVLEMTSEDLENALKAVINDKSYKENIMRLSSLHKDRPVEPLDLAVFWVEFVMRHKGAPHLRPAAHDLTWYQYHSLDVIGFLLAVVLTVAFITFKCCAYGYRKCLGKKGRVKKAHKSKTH
# B1: human recombinant UGT 1A4 (Homo sapiens) (protein)
# chain: T1 sequence (P22310 29-534)
# notes: purchased BD Gentest
# How the values were obtained:
# [1] = system: PPD glucuronidation in pooled HLMs; assay: Chemical inhibition of PPD glucuronidation in pooled HLMs; format: in vitro ADME, human; conditions: PPD 50 μM; for inhibition of PPD glucuronidation (in words): inhibitor 5, 50, and 200 μM
# Experimental: Fluconazole, androsterone, estradiol, and hecogenin [25, 34] were used to inhibit their potential inhibitory effects on PPD glucuronidation in pooled HLMs. A set of concentrations (5, 50, and 200 μM) was used for all four inhibitors. The concentration of PPD was set at 50 μM. The reaction time and protein concentration were set at 60 min and 0.5 mg/mL, respectively. All other incubation conditions were the same as those for Glucuronidation of PPD in pooled HLMs described above. The concentration of organic solvent was 1% of the total incubation volume. An experimental group without inhibitors but with solvents was used as the control, in which the activities of PPD glucuronidation were designated as 100%. The activities of PPD glucuronidation in the inhibited samples were compared with the control to evaluate the remaining enzyme activity. For determination of IC50 (representing the concentration that inhibits 50% of the control activity) of hecogenin, experiments with a set of concentrations of hecogenin (1–400 μM) in pooled HLMs were conducted.
# [2] = system: pooled human liver microsomes (HLMs); assay: Kinetics of PPD glucuronidation by pooled human liver microsomes; format: in vitro ADME; conditions: formation of PPDG
# Experimental: (§1) In vitro PPD glucuronidation was in an incubation volume of 100 μL. Incubation conditions were initially optimized for the linear product formation with respect to protein concentration (0.2–1 mg/mL), and incubation time (15–120 min). The stock solution of PPD was prepared in dimethyl sulfoxide (DMSO), and the final concentration of DMSO in the incubations was 1% (v/v). Briefly, the incubation mixture contained HLMs or RLMs (0.5 mg of protein/mL), UDPGA (2 mM), MgCl2 (4 mM), alamethicin (25 μg/mg protein), PPD (10–500 μM), and Tris–HCl buffer (50 mM, pH 7.4). The mixture was incubated for 5 min at 37 °C, and then the reaction was started by the addition of UDPGA and incubated in a shaking water bath for 60 min. The reaction was terminated by addition of 200 μL of ice-cold acetonitrile containing GRg1 (internal standard (IS), 0.5 μg/mL) and then centrifuged at 15,000× g for 10 min at 4 °C. The supernatant was evaporated to dryness under nitrogen gas at room temperature, and the residue was reconstituted with 200 µL of 20% acetonitrile. After centrifugation at 15,000× g for 10 min at 4 °C, 5 μL of the supernatants was subjected to analysis. Incubations without PPD and UDPGA were served as blank and negative controls, respectively.
# (§2) Quantitative analysis was conducted on an Agilent 1290 infinity system (Agilent Technologies, Santa Clara, CA, USA) coupled with an MS/MS detector (6410 B Triple Quad LC/MS; Agilent Technologies) in negative ion mode. The chromatographic separations were performed on an ACQUITY UPLC HSS T3 column (100 mm × 2.1 mm i. d. (inner diameter), 1.8 μm) thermostated at 45 °C. The mobile phase consisted of A (5 mM ammonium acetate in water) and B (acetonitrile) at a flow rate of 0.4 mL/min. The gradient elution program was set as follow: 0–2 min 20%–50% B, 2–4 min 50%–60% B, 4–5 min 60% B and finally, reconditioning the column with 20% B for 1 min. Optimized ion source parameters were set as follows: gas temperature 325 °C; gas flow 10 L/min; nebulizer 35 psi; capillary voltage 3500 V; fragmentor voltage 265 V for PPDG and 215 V for IS; cell accelerator voltage 0 V; dwell time 200 ms. Data were acquired in multiple reaction monitor (MRM) mode for the following transitions: m/z 635.4 to m/z 375.1 for PPDG and m/z 799.5 to m/z 637.6 for IS, with the collision energy being set at 50 and 26 V, respectively.
# (§3) All results were obtained from three replicates in different microsomal incubations, and all the data were expressed as mean ± SD. To estimate the kinetic parameters, data were transformed and Eadie–Hofstee curves were plotted, which help to identify kinetic models. […] In addition, CLmax was calculated according to the Equation (2). […]
# [3] = system: pooled rat liver microsomes (RLMs); assay: Kinetics of PPD glucuronidation by pooled rat liver microsomes; format: in vitro ADME; conditions: formation of PPDG
# Experimental: as §1, §2, §3
# [4] = biological target: T1, human recombinant UGT1A4; assay: Kinetics of PPD glucuronidation by recombinant UGT1A4; format: in vitro ADME; conditions: formation of PPDG
# Experimental: (§4) A kinetic study for PPD glucuronidation by human recombinant UGT 1A4 was also conducted by incubating PPD with human recombinant UGT 1A4 at protein concentration of 0.25 mg/mL for 1 h. All other incubation conditions were identical to those of glucuronidation of PPD in pooled HLMs.
# (§5) All results were obtained from three replicates in different microsomal incubations, and all the data were expressed as mean ± SD. To estimate the kinetic parameters, data were transformed and Eadie–Hofstee curves were plotted, which help to identify kinetic models. Then kinetic parameters were obtained by fitting velocity data to the sigmoidal kinetic (Hill) model (Equation (1)) using Graph Pad Prism 5.0 software (San Diego, CA, USA). In addition, CLmax was calculated according to the Equation (2). (1) V=Vmax × [S]^n/S50n + [S]^n (2) CLmax = Vmax/S50 × n−1/n(n−1)^1/n
# (§6) V is reaction velocity, Vmax is the maximum reaction velocity, [S] is the substrate concentration, S50 is the substrate concentration at 0.5 Vmax (analogous to Km in the Michaelis–Menten equation), n is the Hill coefficient (which reflects the degree of sigmoidicity of the velocity versus substrate-concentration relationship), CLmax is the maximum clearance, which provides an estimate of the highest clearance attained.
# [5] = biological target: T2, human recombinant UGT1A3; assay: PPD glucuronidation with recombinant human UGT1A3; format: in vitro ADME; conditions: UGT1A3 0.25 mg protein/mL
# Experimental: (§7) PPD glucuronidation was measured in reaction mixtures containing human recombinant UGT1A1, 1A3, 1A4, 1A6, 1A7, 1A8, 1A9, 1A10, 2B4, 2B7, 2B15, and 2B17. Three substrate concentrations (10, 50, and 200 μM) were used in this study. The incubation conditions were the same as those for Glucuronidation of PPD in pooled HLMs described above except for the protein concentration (0.25 mg/mL).
# [6] = system: human recombinant UGT1A1, 1A6, 1A7, 1A8, 1A9, 1A10, 2B4, 2B7, 2B15, and 2B17; assay: PPD glucuronidation with other recombinant human UGT isozymes; format: in vitro ADME; conditions: PPD 10, 50, and 200 μM, 0.25 mg protein/mL
# Experimental: as §7
# [7] = parameters: method as in PMID 23494798; conditions: previous studies ref 13; cited from earlier work
# [8] = biological target: T1, human recombinant UGT1A4; assay: PPD glucuronidation with recombinant human UGT1A4; format: in vitro ADME; parameters: purchased BD Gentest; conditions: UGT1A4 0.25 mg protein/mL
# Experimental: as §7
# [9] = substrate: CC(C)=CCC[C@](C)(O)C1CC[C@]2(C)[C@@H]1[C@H](O)CC1[C@@]3(C)CC[C@H](O)C(C)(C)C3CC[C@]12C; assay: Kinetics of PPD glucuronidation by recombinant UGT1A4; format: in vitro ADME, human; conditions: other: formation of PPDG, recombinant UGT1A4, Hill kinetics, 10–500 μM PPD
# Experimental: as §4, §5, §6
# [10] = HLMs, Hill kinetics, 10–500 μM PPD
# [11] = RLMs, Hill kinetics, 10–500 μM PPD
molecule,measurement,setting,value
"OC(Cn1cncn1)(Cn1cncn1)c1ccc(F)cc1F [Fluconazole, fluconazole]",inhibition of PPD glucuronidation (in words),[1]; pooled HLMs 0.5 mg/mL,no inhibition
C[C@]12CC[C@@H]3c4ccc(O)cc4CC[C@H]3[C@@H]1CC[C@@H]2O [estradiol],inhibition of PPD glucuronidation (in words),[1]; pooled HLMs 0.5 mg/mL,weak inhibition
hecogenin,IC50,"[1]; pooled HLMs, hecogenin 1–400 μM",21.3 ± 4.31 µM
same,inhibition of PPD glucuronidation (in words),[1]; pooled HLMs 0.5 mg/mL,concentration-dependent inhibitory effect
same,inhibitory effect on PPD glucuronidation compared with the solvent control,"[1]; inhibitor at 50 µM, pooled HLMs 0.5 mg/mL",more than 60%
C[C@]12CC[C@@H](O)C[C@@H]1CC[C@@H]1[C@@H]2CC[C@]2(C)C(=O)CC[C@@H]12 [androsterone],inhibition of PPD glucuronidation (in words),[1]; pooled HLMs 0.5 mg/mL,weak inhibition
"CC(C)=CCC[C@](C)(O)[C@H]1CC[C@]2(C)[C@@H]1[C@H](O)C[C@@H]1[C@@]3(C)CC[C@H](O)C(C)(C)[C@@H]3CC[C@]12C [PPD, 20(S)-protopanaxadiol]",Vmax,"[2]; HLMs 0.5 mg protein/mL, Hill kinetics, 10–500 μM PPD, mean ± SD",0.32 ± 0.01 nmol/min/mg Protein
same,S50,[2]; [10],42.80 ± 0.73 µM
same,n (Hill coefficient),[2]; [10],2.12 ± 0.24
same,CLmax,"[2]; HLMs, calculated by Equation (2)",3.70 ± 0.01 μL/min/mg Protein
same,Vmax,"[3]; RLMs 0.5 mg protein/mL, Hill kinetics, 10–500 μM PPD, mean ± SD",0.30 ± 0.01 nmol/min/mg Protein
same,S50,[3]; [11],20.68 ± 1.39 µM
same,n (Hill coefficient),[3]; [11],2.50 ± 0.48
same,CLmax,"[3]; RLMs, calculated by Equation (2)",7.36 ± 0.27 μL/min/mg Protein
same,Vmax,"[4]; recombinant UGT1A4 0.25 mg/mL, Hill kinetics, 10–500 μM PPD, mean ± SD",0.31 ± 0.01 nmol/min/mg Protein
same,n (Hill coefficient),"[4]; recombinant UGT1A4, Hill kinetics, 10–500 μM PPD",2.34 ± 0.23
same,CLmax,"[4]; recombinant UGT1A4, calculated by Equation (2)",8.39 ± 0.79 μL/min/mg Protein
same,catalytic activity towards PPD glucuronidation,[5]; PPD 10 μM,0.02 ± 0.004 nmol/min/mg protein
same,catalytic activity towards PPD glucuronidation,[5]; PPD 50 μM,0.04 ± 0.004 nmol/min/mg protein
same,catalytic activity towards PPD glucuronidation,[5]; PPD 200 μM,0.04 ± 0.003 nmol/min/mg protein
same,PPD glucuronidation by other UGT isozymes (in words),[6],did not participate in this metabolism
same,oral bioavailability,[7],~30%
same,catalytic activity towards PPD glucuronidation,[8]; PPD 10 μM,0.06 ± 0.01 nmol/min/mg protein
same,catalytic activity towards PPD glucuronidation,[8]; PPD 50 μM,0.18 ± 0.01 nmol/min/mg protein
same,catalytic activity towards PPD glucuronidation,[8]; PPD 200 μM,0.35 ± 0.05 nmol/min/mg protein
B1,K0.5,[9],18.49 ± 1.85 µM
same,Vmax,[9],0.00031 µmol/min/mg

# Reference: paper PMC4813125, “Identification of Human UDP-Glucuronosyltransferase 1A4 as the Major Isozyme Responsible for the Glucuronidation of 20(S)-Protopanaxadiol in Human Liver Microsomes” (International Journal of Molecular Sciences, 2016)
